Columns and labels:
active PARP1 enzyme = active PARP1 enzyme (Homo sapiens, UniProt P09874); experiment: PARP1 enzyme inhibition ex vivo; details: 0–100 nM on active PARP1 enzyme (10 U), triplicate
primary cortical neurons [1] = experiment: Mitochondrial and cytosolic NAD+ 24 h after OGD; assay type: cell-based, rat; details: 10 nM, n = 6/group
[2] = Glutamate-induced ferroptotic cell death in HT22 cells, LDH release at 24 h; assay type: cell-based, mouse; details: 5 mM glutamate, LDH at 24 h, n = 5/group
primary cortical neurons [3] = experiment: Oxygen-glucose deprivation; assay type: cell-based, rat; details: concentrations >100 nM
cancer cell lines = details: most cancer cell lines; cited from earlier work
[4] = system: rat primary cortical neurons; experiment: Cytotoxicity in primary cortical neurons, LDH release at 24 h; assay type: cell-based; details: n = 6/group
[5] = Comet tail intensity assay of DNA damage and repair after H2O2; assay type: cell-based, mouse; details: 10 µM, 200 µM H2O2, repair over 30 min

Sequence of active PARP1 enzyme (P09874 whole entry): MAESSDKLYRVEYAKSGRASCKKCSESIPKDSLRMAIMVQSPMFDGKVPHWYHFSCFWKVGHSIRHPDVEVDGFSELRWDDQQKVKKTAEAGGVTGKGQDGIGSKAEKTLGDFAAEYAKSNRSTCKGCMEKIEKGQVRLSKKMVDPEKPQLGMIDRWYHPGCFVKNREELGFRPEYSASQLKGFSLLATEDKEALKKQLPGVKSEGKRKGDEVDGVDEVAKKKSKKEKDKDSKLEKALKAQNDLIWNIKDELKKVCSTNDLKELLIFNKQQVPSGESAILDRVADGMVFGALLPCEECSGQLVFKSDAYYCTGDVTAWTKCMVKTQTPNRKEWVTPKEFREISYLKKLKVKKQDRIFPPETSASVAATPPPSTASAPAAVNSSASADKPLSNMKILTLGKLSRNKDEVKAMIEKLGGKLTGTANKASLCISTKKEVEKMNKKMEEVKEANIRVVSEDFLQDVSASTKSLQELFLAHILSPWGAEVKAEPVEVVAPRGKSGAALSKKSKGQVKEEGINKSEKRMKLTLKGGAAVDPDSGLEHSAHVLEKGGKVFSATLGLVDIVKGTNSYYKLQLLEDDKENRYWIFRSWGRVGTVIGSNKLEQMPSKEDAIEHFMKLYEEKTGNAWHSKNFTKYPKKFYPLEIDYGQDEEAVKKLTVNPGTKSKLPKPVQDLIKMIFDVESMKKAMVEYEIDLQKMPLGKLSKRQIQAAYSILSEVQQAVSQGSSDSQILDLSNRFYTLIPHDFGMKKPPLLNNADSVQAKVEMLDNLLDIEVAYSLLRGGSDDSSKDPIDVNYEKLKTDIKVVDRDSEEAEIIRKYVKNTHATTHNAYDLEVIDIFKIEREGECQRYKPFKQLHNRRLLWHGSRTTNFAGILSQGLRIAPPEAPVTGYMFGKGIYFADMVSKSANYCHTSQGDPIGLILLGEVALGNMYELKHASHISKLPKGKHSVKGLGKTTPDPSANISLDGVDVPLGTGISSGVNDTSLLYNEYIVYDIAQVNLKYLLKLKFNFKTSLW

C[C@@]1(c2nc3c(C(N)=O)cccc3[nH]2)CCCN1 [veliparib, 2-[(S)-2-methylpyrrolidin-2-yl]-1H-benzimidazole-4-carboxamide]
PARP1 inhibition, veliparib versus XJB-veliparib (active PARP1 enzyme): similar | Mitochondrial NAD+ stores after OGD (primary cortical neurons [1]): preserved | Inhibition of glutamate-induced ferroptosis [2]: inhibit glutamate-induced ferroptosis | Protection against OGD at higher concentrations (primary cortical neurons [3]): no additional protection | Tumoricidal concentration (cancer cell lines): > 100 µM | Concentration at which neurotoxicity (defined as >10% cell death) was seen [4]: 1 µM | Effect on DNA repair after H2O2 [5]: impeded DNA repair

From PMC6402482 (ACS chemical biology, 2018)
